Experimental data published in US20260374766A1, “METHODS FOR TREATING CANCER” (Antares Therapeutics, Inc., priority 2022, published 2026).
Like-named read-outs stand apart in the source and are kept apart here.

How the values were obtained:
p53 Y220C = p53 Y220C (Homo sapiens, UniProt P04637, Y220C); assay: Luciferase Reporter Assay (Luc), p53 response element, NClH1299 cells with inducible p53 Y220C; format: cell-based; details: 6 hour; for AC50: read-out: Luc P53 Y220C AC50
Protocol: Luciferase Reporter Assay Protocol
The cells were then used for p53 reporter assay. 5,000 cells were seeded in each well of 384 plate and cultured in 0.5 ug/mL doxycycline (D3072; Sigma) containing medium for 24 hours before compound treatment. After 6 hour of compound treatment, equal volume of One-Glo reagent (E6110; Promega) was added to each well and the plate was incubated for 5 minutes with shaking at room temperature. The luciferase activity was immediately measured with PheraStar microplate reader.

H1299 p53 Y220C = assay: Cell Proliferation Assay (CellTiter-Glo, CTG), H1299 p53 Y220C (NClH1299-inducible p53 Y220C); format: cell-based; details: Homo sapiens, NCI-H1299, 120 h, NClH1299-inducible p53 Y220C cells, 5 days
Protocol: (§1) Inducible p53 Y220C and R273H constructs (Tet-One inducible expression system; Takara) were stably expressed in NClH1299 cells by lentiviral transduction. NUGC3, A549, BxPC3, T3M4, HuH7, HCC2935, MFE296, NClH1299, NClH1299-inducible p53 Y220C, and NClH1299-inducible p53 R273H cell lines were used for cell proliferation assay. 250-500 cells were seeded in each well of 384 plate and then compounds were dispensed into each well using Echo or Tecan. After 5 days of incubation, equal volume of CellTiter-Glo reagent (G7570; Promega) was added into each well and the plate was incubated at room temperature for 10 minutes with shaking. The luminescent signal was measured by PheraStar microplate reader and IC50 was calculated.

[1] = biological target: T1, p53 Y220C mutant protein (amino acid residues 94-293) (Homo sapiens, UniProt P04637, Y220C); assay: Surface Plasmon Resonance (SPR) assay, Kd_kinetic; format: binding; details: SPR, p53 Y220C, read-out: SPR P53 Y220C KD kinetic
T1 construct: p53 Y220C mutant protein (amino acid residues 94-293)
Protocol: Surface Plasmon Resonance (SPR) Assay Protocol
SPR experiments were performed on a Biacore 8K instrument. […] The running buffer contained 50 mM Tris, pH 7.5, 100 mM NaCl, 1 mM DTT, 0.01% Brij35, 0.05% Tween-20 and 1% DMSO. The assay temperature was maintained at 16 or 20 °C and data were fit into the 1:1 binding model using the Biacore Insight Evaluation software.

H1299 p53 R273H = assay: Cell Proliferation Assay (CellTiter-Glo, CTG), H1299 p53 R273H (NClH1299-inducible p53 R273H); format: cell-based; details: Homo sapiens, NCI-H1299, 120 h, CellTiter-Glo, 5 days
Protocol: as §1

NUGC3 p53 Y220C = assay: Cell Proliferation Assay (CellTiter-Glo, CTG), NUGC3 p53 Y220C; format: cell-based; details: Homo sapiens, NUGC-3, 120 h, NUGC3 cells, 5 days, CellTiter-Glo
Protocol: as §1

[2] = Emax, luciferase reporter, NClH1299 inducible p53 Y220C
[3] = AC50, NClH1299 cells with inducible p53 Y220C
[4] = Emax, NClH1299 cells with inducible p53 Y220C, 10 uM tool compound as positive control
[5] = luciferase reporter, NClH1299 inducible p53 Y220C, 10 uM tool compound as positive control
[6] = luciferase reporter, NClH1299 inducible p53 Y220C
[7] = AC50, luciferase reporter, NClH1299 inducible p53 Y220C

T1 sequence (P04637 94-293, stated change not applied): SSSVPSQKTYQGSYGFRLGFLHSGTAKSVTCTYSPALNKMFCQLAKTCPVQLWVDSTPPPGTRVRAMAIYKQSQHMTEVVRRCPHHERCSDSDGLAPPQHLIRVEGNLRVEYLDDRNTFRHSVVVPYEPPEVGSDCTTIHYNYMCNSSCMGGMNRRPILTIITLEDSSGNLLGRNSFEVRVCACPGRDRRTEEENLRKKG

| SMILES | Emax (p53 Y220C; [2]) | IC50 (H1299 p53 Y220C; CellTiter-Glo) | AC50 (p53 Y220C; [3]) | Emax (p53 Y220C; [4]) | Kd [1] | AC50 (p53 Y220C; [7]) | also measured |
| --- | --- | --- | --- | --- | --- | --- | --- |
| CNC(=O)c1ccc(NCC#Cc2nc3c(N[C@@H]4CCN(C)C[C@@H]4F)cccn3c2C(F)(F)C(F)(F)F)c(OC)c1 [Example 30, 4-{[3-(8-{[(3S,4R)-3-fluoro-1-methylpiperidin-4-yl]amino}-3-(1,1,2,2,2-pentafluoroethyl)imidazo[1,2-a]pyridin-2-yl)prop-2-yn-1-yl]amino}-3-methoxy-N-methylbenzamide] |  |  |  |  |  |  | Emax (p53 Y220C; [5]): > 90%; AC50 (p53 Y220C; [6]): > 3000 nM; Kd ([1]; kinetic KD): 10 to 100 nM |
| COc1cc2c(cc1NCC#Cc1nc3c(N[C@@H]4CCN(C)C[C@@H]4F)cccn3c1CC(F)(F)F)CNC2=O [Example 95, 5-{[3-(8-{[(3S,4R)-3-fluoro-1-methylpiperidin-4-yl]amino}-3-(2,2,2-trifluoroethyl)imidazo[1,2-a]pyridin-2-yl)prop-2-yn-1-yl]amino}-6-methoxy-2,3-dihydroisoindol-1-one] |  |  |  |  |  |  | Kd ([1]; kinetic KD): < 10 nM |
| COc1ccc(C(=O)N(C)C)cc1NCC#Cc1nc2c(N[C@@H]3CCN(C)C[C@@H]3F)cccn2c1SC(F)(F)F [Example 143] |  |  |  |  |  |  | IC50 (H1299 p53 R273H; H1299 p53 R273H): 5 to 8 µM; Emax (p53 Y220C; [5]): > 90%; AC50 (p53 Y220C; [6]): < 750 nM; Kd ([1]; kinetic KD): < 10 nM |
| CNC(=O)c1cnc(OC)c(NCC#Cc2nc3c(N[C@@H]4CCN(C)C[C@@H]4F)cccn3c2SC(F)(F)F)n1 [Example 157] |  |  |  |  |  |  | IC50 (H1299 p53 R273H; H1299 p53 R273H): ≥ 10 µM; Emax (p53 Y220C; [5]): 80 to 90%; AC50 (p53 Y220C; [6]): < 750 nM; Kd ([1]; kinetic KD): < 10 nM |
| CNC(=O)c1cc(NCC#Cc2nn3c(N[C@@H]4CCN(C)C[C@@H]4F)cccc3c2SC(F)(F)F)c(OC)cn1 [Example 271] | 80 to 90% | < 750 nM |  |  | < 10 nM | < 750 nM |  |
| CNC(=O)c1ccc(NCC#Cc2nc3c(N[C@H]4C[C@H]5COC[C@H](N5)[C@H]4F)cccn3c2SC(F)(F)F)c(OC)c1 [Example 282] |  |  |  |  |  |  | IC50 (H1299 p53 R273H; NClH1299-inducible p53 R273H cells): ≥ 10 µM; IC50 (NUGC3 p53 Y220C): < 750 nM |
| CNC(=O)c1cc(NCC#Cc2cc3c(N[C@@H]4CCN(C)C[C@@H]4F)cccn3c2SC(F)(F)F)n2ncnc2c1 [Example 361] | < 70% | > 3000 nM |  |  |  | > 3000 nM |  |
| COc1cc(S(C)(=N)=O)ccc1NCC#Cc1cc2c(N[C@@H]3CCN(C)C[C@@H]3F)cccn2c1SC(F)(F)F (stereo partly drawn) [Example 374] | 80 to 90% | < 750 nM |  |  | < 10 nM | < 750 nM |  |
| [2H]C([2H])([2H])Oc1cc(S(C)(=O)=O)ccc1NCC#Cc1cc2c(N[C@@H]3CCN(C(F)(F)F)C[C@@H]3F)cccn2c1SC(F)(F)F [Example 412] | > 90% |  |  |  | < 10 nM | < 750 nM |  |
| CNC(=O)c1ccc(O[C@H]2C[C@@H](O)C2)c(NCC#Cc2cc3c(N[C@@H]4CCN(C)C[C@@H]4F)cccn3c2SC(F)(F)F)c1 [Example 413, 3-{[3-(8-{[(3S,4R)-3-fluoro-1-methylpiperidin-4-yl]amino}-3-[(trifluoromethyl)sulfanyl]indolizin-2-yl)prop-2-yn-1-yl]amino}-N-methyl-4-[(1s,3s)-3-hydroxycyclobutoxy]benzamide] | > 90% | < 750 nM |  |  | < 10 nM | < 750 nM |  |
| [2H]C([2H])([2H])Oc1cc(S(C)(=O)=O)ccc1NCC#Cc1nn2c(N[C@@H]3CCN(C)C[C@@H]3F)cccc2c1SC(F)(F)F [Example 461] |  |  | < 750 nM | > 90% | < 10 nM |  |  |
| CNC(=O)c1ccc(OCC2(O)CC2)c(NCC#Cc2cc3c(N[C@@H]4CCN(C)C[C@@H]4F)cccn3c2SC(F)(F)F)c1 [Example 467] |  |  | < 750 nM | > 90% | < 10 nM |  | IC50 (H1299 p53 Y220C): < 750 nM |
| [2H]C([2H])([2H])Oc1cc(S(C)(=O)=O)ccc1NCC#Cc1cc2c(N[C@@H]3CCN(C)C[C@@H]3F)cccn2c1SC(F)(F)F [Example 485] |  |  | < 750 nM | > 90% | < 10 nM |  |  |
| [2H]C([2H])([2H])Oc1cc(S(C)(=O)=O)ccc1NCC#Cc1nc2c(N[C@@H]3CCN(C)C[C@@H]3F)nccn2c1SC(F)(F)F [Example 490] |  |  | < 750 nM | > 90% | < 10 nM |  |  |
| CNC(=O)c1cc(NCC#Cc2cc3c(N[C@@H]4CCN(C)C[C@@H]4F)cccn3c2SC(F)(F)F)c2ncnn2c1 [Example 494] |  |  | < 750 nM | > 90% | < 10 nM |  | IC50 (H1299 p53 Y220C): < 750 nM |
| [2H]C([2H])([2H])Oc1cc(C(=O)NC)ccc1NCC#Cc1nn2c(N[C@@H]3CCN(C)C[C@@H]3F)cccc2c1SC(F)(F)F [Example 500] |  |  | < 750 nM | > 90% | < 10 nM |  | IC50 (H1299 p53 Y220C): < 750 nM |
| [2H]C([2H])([2H])N1CC[C@@H](Nc2cccn3c(SC(F)(F)F)c(C#CCNc4ccc(S(C)(=O)=O)cc4OC)cc23)[C@@H](F)C1 [Example 501] |  |  |  | > 90% |  |  | IC50 (H1299 p53 Y220C): < 750 nM |

Now from value to compound, other results behind:

| Emax (p53 Y220C; [2]) | IC50 (H1299 p53 Y220C; CellTiter-Glo) | AC50 (p53 Y220C; [3]) | Emax (p53 Y220C; [4]) | Kd [1] | AC50 (p53 Y220C; [7]) | SMILES | also measured |
| --- | --- | --- | --- | --- | --- | --- | --- |
| 80 to 90% | < 750 nM |  |  |  |  | CNC(=O)c1ccc(NCC#Cc2nc3c(N[C@@H]4C[C@@H]5COC[C@@H](N5)[C@@H]4F)cccn3c2SC(F)(F)F)c(OC)c1 (relative stereo) [Example 329] |  |
|  |  | < 750 nM | > 90% | < 10 nM |  | [2H]C(C)(O)CNC(=O)c1ccc(NCC#Cc2cc3c(N[C@@H]4CCN(C)C[C@@H]4F)cccn3c2SC(F)(F)F)c(OC)c1 (single isomer, unassigned) [Example 487, 4-{[3-(8-{[(3S,4R)-3-fluoro-1-methylpiperidin-4-yl]amino}-3-[(trifluoromethyl)sulfanyl]indolizin-2-yl)prop-2-yn-1-yl]amino}-N-[(2R*)-2-hydroxy(2-^2H)propyl]-3-methoxybenzamide] | IC50 (H1299 p53 Y220C): < 750 nM |
| 70 to 80% | > 3000 nM |  |  | < 10 nM | > 3000 nM | COc1cc(C(=O)NCC2CN(C)C2)ccc1NCC#Cc1nc2c(N[C@@H]3CCOC[C@@H]3F)cccn2c1SC(F)(F)F [Example 227] |  |
| 70 to 80% | 750 to 1500 nM |  |  | < 10 nM | 750 to 1500 nM | CNC(=O)c1ccc(OCCN(C)C)c(NCC#Cc2nc3c(N[C@@H]4CCOC[C@@H]4F)cccn3c2SC(F)(F)F)c1 [Example 229] |  |
| 80 to 90% | 1500 to 3000 nM |  |  |  |  | CNC(=O)c1ccc(NCC#Cc2nc3c(N[C@H]4C[C@H]5COC[C@H](N5)[C@H]4F)cccn3c2SC(F)(F)F)c(OC)c1 [Example 281] |  |
| 80 to 90% |  |  |  | < 10 nM | < 750 nM | CNC(=O)c1ccc(NCC#Cc2cc3c(N[C@@H]4CCN(C)C[C@@H]4F)cccn3c2SC(F)(F)F)c(O[C@H]2C[C@H](O)C2)c1 [Example 398] |  |
| 80 to 90% | < 750 nM |  |  | < 10 nM | < 750 nM | C[C@H](O)CNC(=O)c1ccc(OC2COC2)c(NCC#Cc2cc3c(N[C@@H]4CCN(C)C[C@@H]4F)cccn3c2SC(F)(F)F)c1 [Example 400] |  |
|  |  | < 750 nM | > 90% | < 10 nM |  | [2H]C([2H])([2H])Oc1cc(S(C)(=O)=O)ccc1NCC#Cc1nc2c(N[C@@H]3CCN(C)C[C@@H]3C)cccn2c1SC(F)(F)F [Example 454] |  |
|  |  | < 750 nM | > 90% | < 10 nM |  | CNC(=O)c1ccc(NCC#Cc2cc3c(N[C@@H]4CCN(C)C[C@@H]4F)cccn3c2SC(F)(F)F)c(O[C@H]2C[C@@H](O)C2)c1 [Example 474] |  |
|  |  |  | > 90% |  |  | [2H]C([2H])([2H])Oc1cc(C(=O)NC)ccc1NCC#Cc1nc2c(N[C@@H]3CCN(C)C[C@@H]3F)cccn2c1SC(F)(F)F [Example 505, 4-{[3-(8-{[(3S,4R)-3-fluoro-1-methylpiperidin-4-yl]amino}-3-[(trifluoromethyl)sulfanyl]imidazo[1,2-a]pyridin-2-yl)prop-2-yn-1-yl]amino}-3-(2H3)methoxy-N-methylbenzamide] | IC50 (H1299 p53 Y220C): < 750 nM |
|  |  | < 750 nM | > 90% | < 10 nM |  | [2H]C([2H])([2H])Oc1ccc(C(=O)NC)cc1NCC#Cc1nc2c(N[C@@H]3CCN(C)C[C@@H]3F)cccn2c1SC(F)(F)F [Example 507] | IC50 (H1299 p53 Y220C): < 750 nM |
